In one data set the target is ovine COX-1 (Ovis aries (Sheep), UniProt P05979). The experiment in a line: colorimetric COX (ovine) inhibitor screening assay kit. Conditions: for IC50: ovine COX-1; for inhibition at 50 µM: read-out: COX-1 [% inhibition at 50 μM], ovine COX-1, 50 μM. Type of data set: biochemical. As to the method: (§1) Enzyme inhibition was determined using a colorimetric COX (ovine) inhibitor screening assay kit (Cayman Chemicals, Ann Arbor, MI, USA) following the manufacturer's instructions. Stock solutions of test compounds were dissolved in a minimum volume of DMSO.

The target of a further data set is ovine COX-2 (Ovis aries (Sheep), UniProt P79208). The data set is described as above. It counts as biochemical. Conditions: for IC50: ovine COX-2; for inhibition at 50 µM: read-out: COX-2 [% inhibition at 50 μM], ovine COX-2, 50 μM. As to the method: as §1
Another data set deals with COX-2 (Homo sapiens, UniProt P35354). The experiment in a line: colorimetric COX Inhibitor screening Assay (peroxidase component, oxidized TMPD at 590 nm). It counts as biochemical. Conditions: for inhibition at 50 µM: the highest concentration tested; for IC50: human cyclooxygenase. As to the method:
Human cyclooxygenase inhibitory activity was determined by a colorimetric COX Inhibitor screening Assay which measures the peroxidase component of the cyclooxygenases, monitoring the appearance of oxidized N,N,N′,N′-tetramethyl-p-phenylenediamine (TMPD) at 590 nm.

The test system of another data set is Caco-2 cells. Description: Caco-2 monolayer efflux assay, Apparent Permeability (Papp), with or without GLUT-1 inhibitor phloretin. It counts as in vitro ADME, Human. Conditions: for Papp B → A, Phloretin: in the presence of 100 mM Phloretin; for reduction of the basolateral to apical flux (Papp B→A) in the presence of phloretin: phloretin vs alone. As to the method: (§2) In a monolayer efflux assay, the Apparent Permeability (Papp) in both basolateral to apical [Papp(B→A)] and apical to basolateral [Papp(A→B)] directions was determined for each compound (FIG. 2). Human colonic adenocarcinoma cell line (Caco-2) presents a facilitated transport system at the apical and basolateral surface. Caco-2 cells express high levels of GLUT-1 that are localized to the basolateral membrane and transport glucose to the serosal side.
(§3) The Papp(B→A) flux of each compound alone or in the presence of phloretin, a GLUT-1 inhibitor, has been determined. Since GLUT-1 is express in the basolateral compartment a high B→A flux means that the transport is GLUT-1 mediated because B→A flux represents the active transport.
(§4) A→B flux, which represents the passive transport, has also been determined for each compound (Table 2).

In another data set the test system is GLUT-1. Described as above. It counts as in vitro ADME, Human. The settings on record: human. As to the method:
as §2, §3, §4

Experiment in data set [1]: as above
It counts as in vitro ADME, Human. The settings on record: human, compound alone. As to the method: as §2, §3, §4

Read-outs that look alike come from different tables or passages of the source.

The term melting point denotes the temperature, or range, at which the solid turns liquid. One may read the IC50 as the concentration that gives 50% inhibition. As a reminder, the inhibition is the percentage by which the read-out fell short of the control. By Papp A→B is commonly meant how fast a substance crosses the layer from the apical side. In general, Papp B→A refers to the apparent permeability from the basolateral to the apical side of a cell layer.

Sequence of ovine COX-2 (P79208 17-603): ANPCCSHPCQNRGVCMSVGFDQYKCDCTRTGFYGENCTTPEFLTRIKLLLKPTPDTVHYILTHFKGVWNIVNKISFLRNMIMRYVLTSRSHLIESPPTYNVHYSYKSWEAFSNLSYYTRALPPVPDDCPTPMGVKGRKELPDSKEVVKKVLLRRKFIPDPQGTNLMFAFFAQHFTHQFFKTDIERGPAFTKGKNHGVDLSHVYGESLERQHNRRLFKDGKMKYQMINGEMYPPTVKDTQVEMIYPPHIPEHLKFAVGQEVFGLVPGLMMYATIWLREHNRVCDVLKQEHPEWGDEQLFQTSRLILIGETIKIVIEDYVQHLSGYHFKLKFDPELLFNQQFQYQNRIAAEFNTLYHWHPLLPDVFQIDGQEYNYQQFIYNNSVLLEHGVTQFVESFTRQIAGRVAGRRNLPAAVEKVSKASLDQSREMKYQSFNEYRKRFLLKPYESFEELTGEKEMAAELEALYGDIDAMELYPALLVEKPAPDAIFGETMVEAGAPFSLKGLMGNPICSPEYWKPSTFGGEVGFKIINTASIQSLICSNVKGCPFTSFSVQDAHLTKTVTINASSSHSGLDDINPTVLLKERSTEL
Sequence of ovine COX-1 (P05979 25-600): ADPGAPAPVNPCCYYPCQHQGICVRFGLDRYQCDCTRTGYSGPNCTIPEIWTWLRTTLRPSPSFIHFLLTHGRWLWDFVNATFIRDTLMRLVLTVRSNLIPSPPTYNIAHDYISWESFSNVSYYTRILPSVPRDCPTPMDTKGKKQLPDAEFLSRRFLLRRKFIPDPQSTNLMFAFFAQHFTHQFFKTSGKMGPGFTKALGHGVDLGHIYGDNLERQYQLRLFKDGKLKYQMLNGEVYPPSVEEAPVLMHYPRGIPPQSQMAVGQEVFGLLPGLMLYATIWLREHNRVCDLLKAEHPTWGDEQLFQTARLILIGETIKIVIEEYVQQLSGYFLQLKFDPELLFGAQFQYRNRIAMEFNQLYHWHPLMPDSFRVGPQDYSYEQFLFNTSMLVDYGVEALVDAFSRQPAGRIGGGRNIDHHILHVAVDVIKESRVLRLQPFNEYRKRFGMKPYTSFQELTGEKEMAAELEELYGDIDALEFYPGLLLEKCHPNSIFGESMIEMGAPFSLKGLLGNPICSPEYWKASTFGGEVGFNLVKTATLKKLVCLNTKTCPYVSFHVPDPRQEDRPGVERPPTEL
Sequence of COX-2 (P35354 18-604 limits assumed): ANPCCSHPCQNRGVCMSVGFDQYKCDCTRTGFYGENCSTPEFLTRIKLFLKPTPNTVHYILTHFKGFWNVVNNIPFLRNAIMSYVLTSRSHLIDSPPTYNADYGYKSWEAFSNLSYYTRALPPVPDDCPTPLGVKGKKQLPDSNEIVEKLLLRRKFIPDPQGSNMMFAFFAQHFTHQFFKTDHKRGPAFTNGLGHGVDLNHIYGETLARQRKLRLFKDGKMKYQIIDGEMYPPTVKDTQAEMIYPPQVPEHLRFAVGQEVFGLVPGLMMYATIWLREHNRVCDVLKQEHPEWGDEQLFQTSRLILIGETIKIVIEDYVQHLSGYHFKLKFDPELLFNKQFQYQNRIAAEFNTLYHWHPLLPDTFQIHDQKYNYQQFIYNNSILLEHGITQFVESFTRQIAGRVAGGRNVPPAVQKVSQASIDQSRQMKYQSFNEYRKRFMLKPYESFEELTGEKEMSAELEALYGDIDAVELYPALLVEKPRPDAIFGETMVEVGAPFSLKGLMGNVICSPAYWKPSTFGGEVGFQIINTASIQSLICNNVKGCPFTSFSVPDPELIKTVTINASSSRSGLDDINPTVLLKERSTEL

`COc1ccc(-c2noc(CC(=O)Nc3ccc(NC(=O)Cc4onc(-c5ccc(OC)cc5)c4-c4ccc(OC)cc4)cc3)c2-c2ccc(OC)cc2)cc1` [Compound 14]: the melting point was 178 to 182 °C.
For `COc1ccc(-c2noc(CC(=O)NCCCCNC(=O)Cc3onc(-c4ccc(OC)cc4)c3-c3ccc(OC)cc3)c2-c2ccc(OC)cc2)cc1` [drawing 64], on ovine COX-1, the 50% inhibitory concentration (IC50) amounted to 5500 nM and the inhibition at 50 µM was determined as 74%. On ovine COX-2, this compound had a half-inhibitory concentration (IC50) greater than 50000 nM.
For the compound `COc1ccc(-c2noc(CC(=O)NCC(=O)O)c2-c2ccc(OC)cc2)cc1`, the inhibition at 50 µM was 23% at ovine COX-1 and 17% on ovine COX-2.
With `CCCCC/C=C\C/C=C\C/C=C\C/C=C\CCCC(=O)Nc1ccc(NC(=O)Cc2onc(-c3ccc(OC)cc3)c2-c2ccc(OC)cc2)cc1`, the IC50 at ovine COX-1 is 49 nM; at ovine COX-2 it was greater than 50000 nM. Also, the results for the inhibition at 50 µM on ovine COX-1 and at ovine COX-2 were 66% and 40%, respectively.
In the same order, the values of `COc1ccc(-c2noc(CC(=O)NCCNC(=O)Cc3onc(-c4ccc(OC)cc4)c3-c3ccc(OC)cc3)c2-c2ccc(OC)cc2)cc1` [drawing 61] are 13 nM, 120 nM, 75% and 45%.
As to `COC(=O)CNC(=O)Cc1onc(-c2ccc(OC)cc2)c1-c1ccc(OC)cc1`, the figures for the half-maximal inhibitory concentration (IC50) on ovine COX-1 and at ovine COX-2 were 70 nM and 4400 nM, respectively. Further, the inhibition at 50 µM at ovine COX-1 was 95%; at ovine COX-2, 80%.
`CCCCCCCCC(CCCNC(=O)Cc1onc(-c2ccc(OC)cc2)c1-c1ccc(OC)cc1)NC(=O)Cc1onc(-c2ccc(OC)cc2)c1-c1ccc(OC)cc1` (stereo not drawn) [Compound 13, N-(4-(2-(3,4-Bis(4-methoxyphenyl)isoxazol-5-yl)acetamido)dodecyl)-3,4-bis(4-methoxyphenyl)isoxazole-5-carboxyamide] displayed a melting point of 134 to 138 °C.
`COc1ccc(-c2noc(CC(=O)Nc3ccc(-c4ccc(NC(=O)Cc5onc(-c6ccc(OC)cc6)c5-c5ccc(OC)cc5)cc4)cc3)c2-c2ccc(OC)cc2)cc1` [Compound 16, N,N′-(Biphenyl-4,4′-di-yl)bis(2-(3,4-bis(4-methoxyphenyl)isoxazol-5-yl)acetamide)] returned a melting point of 240 to 243 °C.
Take `COc1ccc(-c2noc(CC(=O)NCCCCCCNC(=O)Cc3onc(-c4ccc(OC)cc4)c3-c3ccc(OC)cc3)c2-c2ccc(OC)cc2)cc1`: the IC50 against ovine COX-1 is 9000 nM; against ovine COX-2, greater than 50000 nM. Besides, the inhibition at 50 µM at ovine COX-1 was 50%; on ovine COX-2, 22%.
On COX-2, `COc1ccc(-c2noc(CC(=O)NCCCCC(=O)OC[C@H]3OC(O)[C@H](O)[C@@H](O)[C@H]3O)c2-c2ccc(OC)cc2)cc1` (mixture of isomers) [GALMOF5, 6-O-(5-{2-[3,4-bis(4-methoxyphenyl)isoxazol-5-yl]acetamido}pentanoyl)-D-galactopyranose] gave an inhibition at 50 µM of 24% and a half-inhibitory concentration (IC50) greater than 50000 nM. Also, the “Papp B → A, Phloretin” value in the data set on Caco-2 cells worked out at 47.2 ×10⁻⁶ cm/s. Besides, the apical-to-basolateral permeability (Papp A→B) in the data set with GLUT-1 (with phloretin 100 mM (GLUT-1 inhibitor), in the presence of 100 mM Phloretin, read-out: Papp A → B, Phloretin) was determined as 32.1 ×10⁻⁶ cm/s. The basolateral-to-apical permeability (Papp B→A) in the data set on GLUT-1 (with phloretin 100 mM (GLUT-1 inhibitor), in the presence of 100 mM Phloretin, read-out: Papp B → A, Phloretin) is 47.2 ×10⁻⁶ cm/s. Further, in data set [1], the apical-to-basolateral permeability (Papp A→B) was found to be 32.1 ×10⁻⁶ cm/s and the basolateral-to-apical permeability (Papp B→A) was 74.9 ×10⁻⁶ cm/s.
As to `COc1ccc(-c2noc(CC(=O)NCc3ccc(CNC(=O)Cc4onc(-c5ccc(OC)cc5)c4-c4ccc(OC)cc4)cc3)c2-c2ccc(OC)cc2)cc1`, the IC50 on ovine COX-1 and at ovine COX-2 was greater than 50000 nM throughout.
As for `COc1ccc(-c2noc(CC(=O)NCCCCC(=O)OC[C@H]3OC(O)[C@H](O)[C@@H](O)[C@H]3O)c2-c2ccc(OC)cc2)cc1` (stereo partly drawn) [GALMOF5, 6-O-(5-{2-[3,4-bis(4-methoxyphenyl)isoxazol-5-yl]acetamido}pentanoyl)-D-galactopyranose], in the data set with Caco-2 cells, the “reduction of the basolateral to apical flux (Papp B→A) in the presence of phloretin” value worked out at 37%.
Consider `COc1ccc(-c2noc(CC(=O)NCCCCCCCCCCC(=O)OCC3OC(O)C(O)C(O)C3O)c2-c2ccc(OC)cc2)cc1` [GALMOF11, [(2S,3R,4S,6R)-3,4,5,6-tetrahydroxytetrahydro-2H-pyran-2-yl-]mhetyl 11-{2-[3,4-bis(4-methoxyphenyl)isoxazol-5-yl-]acetamido}undecanoate], for which, on COX-2, the inhibition at 50 µM worked out at 64%. Further, the IC50 on COX-2 came out at 270 nM. Besides, the “Papp B→A” value in the data set with Caco-2 cells (compound alone) worked out at 77.2 ×10⁻⁶ cm/s; in the data set on GLUT-1 (compound alone, read-out: Papp B → A) it was 77.2 ×10⁻⁶ cm/s; in the data set with GLUT-1 (with phloretin (GLUT-1 inhibitor), in Phloretin, read-out: Papp B → A, Phloretin) it was 62.2 ×10⁻⁶ cm/s. Further, in the data set on Caco-2 cells, the “Papp B → A, Phloretin” value is 62.2 ×10⁻⁶ cm/s. Further, the “reduction of the basolateral to apical flux (Papp B→A) in the presence of phloretin” value in the data set on Caco-2 cells turned out to be 20%. In addition, the Papp A→B in the data set with GLUT-1 (compound alone, read-out: Papp A → B) was found to be 29.2 ×10⁻⁶ cm/s; in the data set on GLUT-1 (with phloretin (GLUT-1 inhibitor), in Phloretin, read-out: Papp A → B, Phloretin), 29.2 ×10⁻⁶ cm/s.
On to `COc1ccc(-c2noc(CC(=O)Nc3ccc(-c4ccc(NC(=O)Cc5onc(-c6ccc(OC)cc6)c5-c5ccc(OC)cc5)cc4)cc3)c2-c2ccc(OC)cc2)cc1` [drawing 66], for which the IC50 on ovine COX-1 is 80 nM; on ovine COX-2 it was greater than 50000 nM. For the same compound, at ovine COX-1, the inhibition at 50 µM came out at 73%.
For `COc1ccc(-c2noc(CC(=O)NCCNC(=O)Cc3onc(-c4ccc(OC)cc4)c3-c3ccc(OC)cc3)c2-c2ccc(OC)cc2)cc1` [Compound 10, N,N′-(Ethane-1,2-di-yl)-bis-(2-[3,4-bis (4-methoxyphenyl)isoxazol-5-yl]acetamide)], the melting point was 145 to 148 °C.
`COc1ccc(-c2noc(CC(=O)NCCCCNC(=O)Cc3onc(-c4ccc(OC)cc4)c3-c3ccc(OC)cc3)c2-c2ccc(OC)cc2)cc1` [Compound 11, N-(4-(2-(3,4-Bis(4-methoxyphenyl)isoxazol-5-yl)acetamido)butyl)-3,4-bis(4-methoxyphenyl)isoxazole-5-carboxyamide]: the melting point lay within 163 to 166 °C.
Regarding `COc1ccc(-c2noc(CC(=O)Nc3ccc(NC(=O)Cc4onc(-c5ccc(OC)cc5)c4-c4ccc(OC)cc4)cc3)c2-c2ccc(OC)cc2)cc1` [drawing 65], at ovine COX-1, half-maximal inhibition (IC50) was put at 150 nM and the inhibition at 50 µM stood at 85%. This compound yielded a half-maximal inhibitory concentration (IC50) on ovine COX-2 greater than 50000 nM.
Take `COc1ccc(-c2noc(CC(=O)OCC3OC(O)C(O)C(O)C3O)c2-c2ccc(OC)cc2)cc1` (stereo not drawn) [drawing 44]: at ovine COX-1, it took 100 nM to reach half-maximal inhibition (IC50) and the inhibition at 50 µM was 100%. Further, on ovine COX-2, 700 nM corresponded to half-maximal inhibition (IC50) and the inhibition at 50 µM is 87%.
The compound `CCC(CCCNC(=O)Cc1onc(-c2ccc(OC)cc2)c1-c1ccc(OC)cc1)NC(=O)Cc1onc(-c2ccc(OC)cc2)c1-c1ccc(OC)cc1` (stereo not drawn) [Compound 12, N-(4-(2-(3,4-Bis(4-methoxyphenyl)isoxazol-5-yl)acetamido)hexyl)-3,4-bis(4-methoxyphenyl)isoxazole-5-carboxyamide] came in with a melting point of 159 to 161 °C.
On to `CCCCC/C=C\C/C=C\C/C=C\C/C=C\CCCC(=O)NCCCCNC(=O)Cc1onc(-c2ccc(OC)cc2)c1-c1ccc(OC)cc1`, for which the figures for the IC50 at ovine COX-1 and on ovine COX-2 were 16000 nM and 800 nM, respectively. Moreover, the inhibition at 50 µM at ovine COX-1 is 57%; at ovine COX-2 it was 61%.
In the case of `COc1ccc(-c2noc(CC(=O)O)c2-c2ccc(OC)cc2)cc1` [drawing 42, reference compound], the inhibition at 50 µM at ovine COX-1 was 100%; at ovine COX-2 it was 38%. Moreover, the 50% inhibitory concentration (IC50) at ovine COX-2 is greater than 50000 nM.

These data come from patent publication US12011433B2 (UNIVERSITÁ DEGLI STUDI DI BARI “ALDO MORO”, priority 2016, dated 2024).
